For assay [1], the target named is MDM2 (Homo sapiens, UniProt Q00987). The assay can be described thus: Competitive fluorescence polarization assay for MDM2. It is filed as binding. Particulars: competitive FP assay, MDM2.
Method: Dilute 1 mM (in 100% DMSO) of FAM labeled linear peptide with DMSO to 100 μM (dilution 1:10). Then, dilute from 100 μM to 10 μM with water (dilution 1:10) and then dilute with FP buffer from 10 μM to 40 nM (dilution 1:250). This is the working solution which will be a 10 nM concentration in well (dilution 1:4). […] Then, dilute from 5 mM to 500 μM with H2O (dilution 1:10) and then dilute with FP buffer from 500 μM to 20 μM (dilution 1:25).
Dilute 1 mM (in 100% DMSO) of FAM labeled linear peptide with DMSO to 100 μM (dilution 1:10). Then, dilute from 100 μM to 10 μM with water (dilution 1:10) and then dilute with FP buffer from 10 μM to 40 nM (dilution 1:250). This is the working solution which will be a 10 nM concentration in well (dilution 1:4). […] Dilute 10 mM (in 100% DMSO) with DMSO to 5 mM (dilution 1:2). Then, dilute from 5 mM to 500 μM with H2O (dilution 1:10) and then dilute with FP buffer from 500 μM to 20 μM (dilution 1:25). […] Transfer 10 μl of serial diluted unlabeled peptides to each well which is filled with 20 μl of 300 nM of protein. • 7. Add 10 μl of 10 nM (4×) of FAM labeled peptide into each well and incubate for 3 hr to read.
Assay [2] deals with T1, MDMX (Homo sapiens, UniProt O15151).
T1 sequence (O15151 1-125): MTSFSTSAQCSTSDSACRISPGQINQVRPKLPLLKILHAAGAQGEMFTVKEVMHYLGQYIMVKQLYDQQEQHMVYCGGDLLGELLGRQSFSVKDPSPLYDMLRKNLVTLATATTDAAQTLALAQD
The experiment in a line: Competitive fluorescence polarization assay for MDMX. It counts as binding. Particulars: competitive FP assay.

pIC50, pKi: −log10 of the molar value. Read-outs that look alike come from different tables or passages of the source. Where a SMILES comes first, the peptide text is derived from it. Bridges are numbered along the chain shown (N, C = ends). [ ]: non-standard residue; d: D form. Phe(4-guanidino) = N=C(N)Nc1ccc(C[C@H](N)C(=O)O)cc1; R8 = C=CCCCCCC[C@@](C)(N)C(=O)O; Cba = N[C@@H](CC1CCC1)C(=O)O; S5 = C=CCCC[C@](C)(N)C(=O)O; Nle = CCCC[C@H](N)C(=O)O; Sar = CNCC(=O)O

MDM2, sequence (Q00987 1-125): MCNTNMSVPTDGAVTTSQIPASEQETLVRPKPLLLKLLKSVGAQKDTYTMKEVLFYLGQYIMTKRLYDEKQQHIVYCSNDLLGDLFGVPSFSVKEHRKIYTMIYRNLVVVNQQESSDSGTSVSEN

Take `CCCC[C@H](NC(=O)[C@H](Cc1c[nH]cn1)NC(=O)[C@H](Cc1c[nH]cn1)NC(=O)[C@]1(C)CCCC=CCCCCCC[C@@](C)(NC(=O)[C@H](Cc2ccccc2)NC(C)=O)C(=O)N[C@@H](C)C(=O)N[C@@H](Cc2ccc(O)cc2)C(=O)N[C@@H](Cc2c[nH]c3ccccc23)C(=O)N[C@@H](C)C(=O)N[C@@H](CCC(N)=O)C(=O)N[C@@H](CC(C)C)C(=O)N1)C(=O)N[C@@H](CC(C)C)C(N)=O` [compound 38] (Ac-F[R8]AYWAQL[S5]HH[Nle]L-NH2; staple 2-9): the pIC50 was under 6.00 in assay [1] (read-out: IC50 (MDM2)) and 6.00 to 7.00 in assay [2] (read-out: IC50 (MDMX)). In addition, the pKi in assay [1] (read-out: Ki (MDM2)) is 6.00 to 7.00; in assay [2] (read-out: Ki (MDMX)) it was 7.00 to 8.00.

`CCCC[C@H](NC(=O)[C@H](C)NC(=O)[C@H](C)NC(=O)[C@]1(C)CCCC=CCCCCCC[C@@](C)(NC(=O)[C@H](Cc2ccccc2)NC(=O)[C@@H](NC(=O)[C@H](CC(C)C)NC(C)=O)[C@@H](C)O)C(=O)N[C@@H](C)C(=O)N[C@@H](Cc2ccc(O)cc2)C(=O)N[C@@H](Cc2c[nH]c3ccccc23)C(=O)N[C@@H](C)C(=O)N[C@@H](CCC(N)=O)C(=O)N[C@@H](CCC(C)C)C(=O)N1)C(=O)N[C@@H](C)C(=O)N[C@@H](C)C(N)=O` [compound 323]: the pIC50 in assay [1] (read-out: IC50 (MDM2)) is 7.00 to 8.00; in assay [2] (read-out: IC50 (MDMX)), under 6.00. Moreover, the pKi was 7.00 to 8.00 in assay [1] (read-out: Ki (MDM2)) and 6.00 to 7.00 in assay [2] (read-out: Ki (MDMX)).

With `CC(=O)N[C@@H](CC(C)C)C(=O)N[C@H](C(=O)N[C@@H](Cc1ccccc1)C(=O)N[C@]1(C)CCCCCCC=CCCC[C@@](C)(C(=O)N[C@@H](C)C(=O)N[C@@H](C)C(=O)N[C@@H](C)C(=O)N(C)CC(=O)N[C@@H](C)C(=O)N[C@H](C)C(N)=O)NC(=O)[C@H](CC(C)C)NC(=O)[C@H](CCC(N)=O)NC(=O)[C@H](C)NC(=O)[C@H](Cc2c[nH]c3ccccc23)NC(=O)[C@H](Cc2ccc(O)cc2)NC(=O)[C@H](CCC(=O)O)NC1=O)[C@@H](C)O` [compound 576] (Ac-LTF[R8]EYWAQL[S5]AAA[Sar]A[dA]-NH2; staple 4-11), the pKi in assay [1] (read-out: Ki (MDM2)) is over 8.00; in assay [2] (read-out: Ki (MDMX)) it was 7.00 to 8.00.

In the case of `CC(=O)N[C@@H](CC(C)C)C(=O)N[C@H](C(=O)N[C@@H](Cc1ccccc1)C(=O)N[C@]1(C)CCCCCCCCCCC[C@@](C)(C(=O)N[C@@H](C)C(=O)N[C@@H](C)C(=O)N[C@@H](C)C(=O)N[C@@H](C)C(=O)N[C@@H](C)C(=O)N[C@H](C)C(N)=O)NC(=O)[C@H](CC(C)C)NC(=O)[C@H](CCC(N)=O)NC(=O)[C@H](C)NC(=O)[C@H](Cc2c[nH]c3ccccc23)NC(=O)[C@H](Cc2ccc(O)cc2)NC(=O)[C@H](CCC(=O)O)NC1=O)[C@@H](C)O` [compound 445], the pIC50 in assay [1] (IC50 (MDM2)) was 7.00 to 8.00; in assay [2] (IC50 (MDMX)) it was 6.00 to 7.00. The pKi in assay [1] (Ki (MDM2)) was over 8.00; in assay [2] (Ki (MDMX)) it was 7.00 to 8.00.

For the molecule `CCCC[C@H](NC(=O)[C@H](C)NC(=O)[C@H](C)NC(=O)[C@]1(C)CCCC=CCCCCCC[C@@](C)(NC(=O)[C@H](Cc2ccccc2)NC(=O)[C@@H](NC(=O)[C@H](CC(C)C)NC(C)=O)[C@@H](C)O)C(=O)N[C@@H](C)C(=O)N[C@@H](Cc2ccc(O)cc2)C(=O)N[C@@H](Cc2c[nH]c3ccccc23)C(=O)N[C@@H](C)C(=O)N[C@@H](CCC(N)=O)C(=O)N[C@@H](CC(C)C)C(=O)N1)C(=O)N[C@H](CC(C)C)C(N)=O` (single isomer, unassigned) [compound 85], the pIC50 was 7.00 to 8.00 in assay [1] (read-out: IC50 (MDM2)) and 6.00 to 7.00 in assay [2] (read-out: IC50 (MDMX)). The pKi was over 8.00 in assay [1] (read-out: Ki (MDM2)) and 7.00 to 8.00 in assay [2] (read-out: Ki (MDMX)).

In the case of `CC(=O)N[C@@H](CC(C)C)C(=O)N[C@H](C(=O)N[C@@H](Cc1ccccc1)C(=O)N[C@]1(C)CCCCCCC=CCCC[C@@](C)(C(=O)N[C@@H](CO)C(=O)N[C@@H](C)C(=O)N[C@@H](C)C(N)=O)NC(=O)[C@H](CC2CCC2)NC(=O)[C@H](CCCNC(=N)N)NC(=O)[C@H](C)NC(=O)[C@H](Cc2c[nH]c3ccccc23)NC(=O)[C@H](Cc2ccc(O)cc2)NC(=O)[C@H](CCC(=O)O)NC1=O)[C@@H](C)O` [compound 363] (Ac-LTF[R8]EYWAR[Cba][S5]SAA-NH2; staple 4-11), the pIC50 in assay [1] (read-out: IC50 (MDM2)) and in assay [2] (read-out: IC50 (MDMX)) was 7.00 to 8.00 throughout. Also, the pKi in assay [1] (read-out: Ki (MDM2)) and in assay [2] (read-out: Ki (MDMX)) was over 8.00 throughout.

`CC(=O)N[C@@H](CC(C)C)C(=O)N[C@H](C(=O)N[C@@H](Cc1ccccc1)C(=O)N[C@]1(C)CCCCCCC=CCCC[C@@](C)(C(=O)N[C@@H](C)C(=O)N[C@@H](C)C(=O)N[C@@H](C)C(=O)N[C@@H](C)C(=O)N[C@H](C)C(N)=O)NC(=O)[C@H](CC(C)C)NC(=O)[C@H](CCC(N)=O)NC(=O)[C@H](C)NC(=O)[C@H](Cc2c[nH]c3ccccc23)NC(=O)[C@H](Cc2ccc(O)cc2)NC(=O)[C@H](CCC(=O)O)NC1=O)[C@@H](C)O` [compound 585] (Ac-LTF[R8]EYWAQL[S5]AAAA[dA]-NH2; staple 4-11): the pKi in assay [1] (read-out: Ki (MDM2)) and in assay [2] (read-out: Ki (MDMX)) was 7.00 to 8.00 in each case.

`CCCC[C@H](NC(=O)[C@H](C)NC(=O)[C@H](C)NC(=O)[C@]1(C)CCCC=CCCCCCC[C@@](C)(NC(=O)[C@H](Cc2ccccc2)NC(=O)[C@@H](NC(=O)[C@H](CC(C)C)NC(C)=O)[C@@H](C)O)C(=O)N[C@@H](C)C(=O)N[C@@H](Cc2ccc(O)cc2)C(=O)N[C@@H](Cc2c[nH]c3ccccc23)C(=O)NC(C)(C)C(=O)N[C@@H](CCC(N)=O)C(=O)N[C@@H](CC(C)C)C(=O)N1)C(=O)N[C@@H](C)C(N)=O` (single isomer, unassigned) [compound 390]: the pIC50 in assay [1] (read-out: IC50 (MDM2)) and in assay [2] (read-out: IC50 (MDMX)) was 7.00 to 8.00 throughout. The pKi was over 8.00 in assay [1] (read-out: Ki (MDM2)) and 7.00 to 8.00 in assay [2] (read-out: Ki (MDMX)).

As to `CC(=O)N[C@@H](CC(C)C)C(=O)N[C@H](C(=O)N[C@@H](Cc1ccccc1)C(=O)N[C@]1(C)CCCCCCC=CCCC[C@@](C)(C(=O)N[C@@H](C)C(=O)N[C@@H](C)C(=O)N[C@@H](C)C(=O)N[C@@H](C)C(=O)N[C@@H](C)C(=O)N[C@H](C)C(N)=O)NC(=O)[C@H](CC(C)C)NC(=O)[C@H](CCC(N)=O)NC(=O)[C@H](C)NC(=O)[C@H](Cc2c[nH]c3ccccc23)NC(=O)[C@H](Cc2ccc(O)cc2)NC(=O)[C@H](Cc2ccc(NC(=N)N)cc2)NC1=O)[C@@H](C)O` [compound 603] (Ac-LTF[R8][Phe(4-guanidino)]YWAQL[S5]AAAAA[dA]-NH2; staple 4-11), the pKi in assay [1] (Ki (MDM2)) and in assay [2] (Ki (MDMX)) was over 8.00 throughout.

As to `CCCC[C@H](NC(=O)[C@H](Cc1c[nH]c2ccccc12)NC(=O)[C@H](C)NC(=O)[C@]1(C)CCCC=CCCCCCC[C@@](C)(NC(=O)[C@H](Cc2ccccc2)NC(=O)[C@@H](NC(=O)[C@H](CCC(=O)O)NC(C)=O)[C@@H](C)O)C(=O)N[C@@H](CCC(=O)O)C(=O)N[C@@H](Cc2ccc(O)cc2)C(=O)N[C@@H](Cc2c[nH]c3ccccc23)C(=O)N[C@@H](C)C(=O)N[C@@H](CCC(N)=O)C(=O)N[C@@H](CC2CCC2)C(=O)N1)C(=O)N[C@H](C)C(N)=O` [compound 272] (Ac-ETF[R8]EYWAQ[Cba][S5]AW[Nle][dA]-NH2; staple 4-11), the pIC50 was over 8.00 in assay [1] (read-out: IC50 (MDM2)) and 7.00 to 8.00 in assay [2] (read-out: IC50 (MDMX)). Also, the pKi in assay [1] (read-out: Ki (MDM2)) and in assay [2] (read-out: Ki (MDMX)) was over 8.00 each time.

For the origin of these results see patent publication US8927500B2, “Peptidomimetic macrocycles” (Aileron Therapeutics, Inc., priority 2012, dated 2015).
